Test results from patent publication US20260062426A1, “CYCLIN DEPENDENT KINASE DEGRADERS AND METHODS OF USE THEREOF” (Differentiated Therapeutics Inc, priority 2023, published 2026).

How the values were obtained:
Format in all cases: cell-based
CCNE1 = biological target: T1, CCNE1 (Homo sapiens, UniProt P24864+P24941); experiment: CCNE1 HIBIT PQ (protein quantification), degradation; details: for CCNE1 HIBIT PQ Max (%): Max = Maximum; for DC50: PQ = Protein Quantification
T1 construct: host or cells: HEK293
Outline: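 HEK293 cells carrying HiBiT-tagged CCNE1 were grown in EMEM with 10% FBS and seeded in 384-well plates at 1.6×10⁵ cells/well in 50 uL, then incubated overnight at 37° C and 5% CO₂. Compound treatment lasted 6 hours, and CCNE1 protein was then measured with a HiBiT assay. High control was 0.1% DMSO-treated cells and low control was culture medium only. Maximal degradation and DC50 were derived from these readings.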

CDK9 = biological target: T2, CDK9 (Homo sapiens, UniProt P50750); experiment: CDK9 HIBIT PQ (protein quantification), degradation; details: for DC50: PQ = Protein Quantification
T2 construct: host or cells: HEK293
T2 sequence (P50750 whole entry): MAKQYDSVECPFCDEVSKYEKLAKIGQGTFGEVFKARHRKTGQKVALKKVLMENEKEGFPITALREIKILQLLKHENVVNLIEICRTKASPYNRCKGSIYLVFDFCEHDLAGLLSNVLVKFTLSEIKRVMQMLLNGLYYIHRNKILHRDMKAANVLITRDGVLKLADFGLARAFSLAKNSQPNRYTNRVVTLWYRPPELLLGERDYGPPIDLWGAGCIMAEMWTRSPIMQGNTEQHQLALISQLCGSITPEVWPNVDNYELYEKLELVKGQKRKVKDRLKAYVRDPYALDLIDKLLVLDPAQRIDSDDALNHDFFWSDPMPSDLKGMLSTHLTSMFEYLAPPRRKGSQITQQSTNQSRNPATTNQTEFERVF
Outline: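 HEK293 cells bearing HiBiT-tagged CDK9 were cultured in DMEM with 10% FBS, plated into 384-well plates at 1.6×10^5 cells/well in 50 uL, and left overnight at 37° C and 5% CO2. A HiBiT assay measured CDK9 protein after compound treatment, with 0.1% DMSO-treated cells as the high control and culture medium alone as the low control. These readings gave the maximal degradation, Dmax and DC50.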

CDK2 = biological target: T3, CDK2 (Homo sapiens, UniProt P24941); experiment: CDK2 HIBIT PQ (protein quantification), degradation; details: for CDK2 HIBIT PQ Max (%): Max = Maximum; for DC50: PQ = Protein Quantification
T3 construct: host or cells: HEK293
Outline: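 DC50 and maximal degradation were derived from a HiBiT lytic readout in HEK293 cells carrying HiBiT-tagged CDK2. Cells were seeded in 384-well plates at 1.6×10^5 cells/well in 50 uL of DMEM with 10% FBS, incubated overnight at 37° C and 5% CO2, treated with compound for 6 hours, and then given 20 μL of HiBiT reagent with 20 minutes of shaking at room temperature before an EnVision reading. Wells with 0.1% DMSO served as the high control and wells with medium only as the low control.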

SMILES	CCNE1 HIBIT PQ Max (%) (CCNE1)	Dmax (CDK9; Max = Maximum) [%]	DC50 (CDK9) [nM]	CDK2 HIBIT PQ Max (%) (CDK2)	DC50 (CDK2) [nM]	DC50 (CCNE1) [nM]	CDK9 HIBIT PQ Max (%) (CDK9; Max = Maximum)
CC(C)Oc1c(-c2cn[nH]c2)ncn2nc(Nc3ccc(S(=O)(=O)N4CCC[C@@H](CN5CC[C@@H](c6ccc7c(N8CCC(=O)NC8=O)nn(C)c7c6)CC5(C)C)C4)cc3F)nc12 (single isomer, unassigned) [Compound 105]	24	25		63	0.9		
CC(C)Oc1c(-c2cn[nH]c2)ncn2nc(Nc3c(F)cc(S(=O)(=O)N(C)CCCN4CCC(c5ccc6c(c5)n(C)c(=O)n6C5CCC(=O)NC5=O)CC4)cc3F)nc12 (racemic) [Compound 58]	86	86	1.51	94	0.1	0.39	
CC(C)Oc1c(-c2cn[nH]c2)ncn2nc(Nc3ccc(S(=O)(=O)N(C)CCCN4CCN(c5ccc6c(c5)n(C)c(=O)n6C5CCC(=O)NC5=O)C[C@H]4C(C)C)cc3F)nc12 (some centres unmarked) [Compound 65]	39	49		85	0.2		
CC(C)Oc1c(-c2cn[nH]c2)ncn2nc(Nc3ccc(S(=O)(=O)N4CCC[C@H](CN5CC[C@@H](c6ccc7c(N8CCC(=O)NC8=O)nn(C)c7c6)CC5(C)C)C4)cc3F)nc12 (single isomer, unassigned) [Compound 102]	76		5.65	90	0.5	1.34	75
CC(C)Oc1c(-c2cn[nH]c2)ncn2nc(Nc3ccc(S(=O)(=O)N(C)CCCN4CC5CC4CN5c4ccc5c(c4)n(C)c(=O)n5C4CCC(=O)NC4=O)cc3F)nc12 (centres unmarked) [Compound 69]	18	6		71	0.5		
CC(C)Oc1c(-c2cn[nH]c2)ncn2nc(N[C@H]3CCN(S(=O)(=O)c4cccc(CN5CCN(c6ccc7c(N8CCC(=O)NC8=O)nn(C)c7c6)CC5(C)C)c4)C[C@H]3C)nc12 [Compound 52]	93	93	38.7	98	2.8	13.8	
CC(C)Oc1c(-c2cn[nH]c2)ncn2nc(Nc3ccc(S(=O)(=O)N(C)CCCN4CCN(c5ccc6c(c5)n(C)c(=O)n6C5CCC(=O)NC5=O)CC4(C)C)cc3F)nc12 (racemic) [Compound 67]	73	91	1.52	92	< 0.152	1.08	
CC(C)Oc1c(-c2cn[nH]c2)ncn2nc(Nc3ccc(S(=O)(=O)c4cccc(CN5CCN(c6ccc7c(N8CCC(=O)NC8=O)nn(C)c7c6)CC5C(C)C)c4)cc3F)nc12 (single isomer, unassigned) [Compound 107]	71			93	12	63.1	

More lines, now with the values ahead:

CCNE1 HIBIT PQ Max (%) (CCNE1)	Dmax (CDK9; Max = Maximum) [%]	DC50 (CDK9) [nM]	CDK2 HIBIT PQ Max (%) (CDK2)	DC50 (CDK2) [nM]	DC50 (CCNE1) [nM]	CDK9 HIBIT PQ Max (%) (CDK9; Max = Maximum)	SMILES
41	57	28	94	3.9			CC(C)Oc1c(-c2cn[nH]c2)ncn2nc(Nc3ccc(S(=O)(=O)c4cccc(CN5CCN(c6ccc7c(N8CCC(=O)NC8=O)nn(C)c7c6)C(C)C5)c4)cc3F)nc12 (racemic) [Compound 41]
83	77	2.7	91	0.26	0.94		CC(C)Oc1c(-c2cn[nH]c2)ncn2nc(Nc3ccc(S(=O)(=O)N(C)CCCN4CCN(c5cccc6c5n(C)c(=O)n6C5CCC(=O)NC5=O)CC4)cc3F)nc12 (racemic) [Compound 17]
26	9		81	1.7			CC(C)Oc1c(-c2cn[nH]c2)ncn2nc(Nc3ccc(S(=O)(=O)c4cccc(CC5CC(c6ccc7c(c6)n(C)c(=O)n7[C@H]6CCC(=O)NC6=O)C5)c4)cc3F)nc12 (mixture of isomers) [Compound 31, (3S)-3-[5-(3-{[3-(3-fluoro-4-{[8-isopropoxy-7-(1H-pyrazol-4-yl)-[1,2,4]triazolo[1,5-c]pyrimidin-2-yl]amino}benzenesulfonyl)phenyl]methyl}cyclobutyl)-3-methyl-2-oxo-1,3-benzodiazol-1-yl]piperidine-2,6-dione]
67	60	58.5	96	3.3	14.9		CC(C)Oc1c(-c2cn[nH]c2)ncn2nc(Nc3ccc(S(=O)(=O)c4cccc(CN5CCN(c6ccc7c(N8CCC(=O)NC8=O)nn(C)c7c6)CC5C)c4)cc3F)nc12 (racemic) [Compound 39]
71	97	16.1	93	1.7	10.9		CC(C)Oc1c(-c2cn[nH]c2)ncn2nc(Nc3ccc(S(=O)(=O)c4cccc(N5CCC(CN6CCN(c7ccc8c(c7)CN(C7CCC(=O)NC7=O)C8=O)CC6)CC5)c4)cc3F)nc12 (racemic) [Compound 22]
35	29		78				CC(C)Oc1c(-c2cn[nH]c2)ncn2nc(Nc3ccc(S(=O)(=O)N4CCC(CN5CCC(c6ccc7c(c6)n(C)c(=O)n7C6CCC(=O)NC6=O)CC5)C4)cc3F)nc12 (centres unmarked) [Compound 71]
52	27		88	23.4	100		CC(C)Oc1c(-c2cn[nH]c2)ncn2nc(Nc3ccc(S(=O)(=O)c4cccc(C[C@H]5C[C@H](c6ccc7c(c6)CN([C@H]6CCC(=O)NC6=O)C7=O)C5)c4)cc3F)nc12 (stereo in doubt) [Compound 82, (S)-3-(5-((1s,3S)-3-(3-((3-fluoro-4-((8-isopropoxy-7-(1H-pyrazol-4-yl)-[1,2,4]triazolo[1,5-c]pyrimidin-2-yl)amino)phenyl)sulfonyl)benzyl)cyclobutyl)-1-oxoisoindolin-2-yl)piperidine-2,6-dione]
62	8		89	2.2	4.06		CC(C)Oc1c(-c2cn[nH]c2)ncn2nc(Nc3ccc(S(=O)(=O)c4cccc(CN5CC(c6ccc7c(c6)CN(C6CCC(=O)NC6=O)C7=O)C5)c4)cc3F)nc12 (racemic) [Compound 12]
85	49		98	3.9	20.3		CC(C)Oc1c(-c2cn[nH]c2)ncn2nc(Nc3ccc(S(=O)(=O)c4cccc(C[C@H]5C[C@H](c6ccc7c(c6)CN([C@@H]6CCC(=O)NC6=O)C7=O)C5)c4)cc3F)nc12 (stereo in doubt) [Compound 80, (R)-3-(5-((1s,3R)-3-(3-((3-fluoro-4-((8-isopropoxy-7-(1H-pyrazol-4-yl)-[1,2,4]triazolo[1,5-c]pyrimidin-2-yl)amino)phenyl)sulfonyl)benzyl)cyclobutyl)-1-oxoisoindolin-2-yl)piperidine-2,6-dione]
59			94	8.3	39.4		CC(C)Oc1c(-c2cn[nH]c2)ncn2nc(Nc3ccc(S(=O)(=O)c4cccc(CN5CCN(c6ccc7c(N8CCC(=O)NC8=O)nn(C)c7c6)CC5C(C)C)c4)cc3F)nc12 (single isomer, unassigned) [Compound 106]
